The results in this text go back to patent publication US20210253557A1, “SUBSTITUTED TRIAZOLE DERIVATIVES AND USES THEREOF” (Bayer Pharma Aktiengesellschaft, priority 2017, published 2021).

Counter-ions that a name gives are not always drawn.

The target of test [1] is T1, human V1a receptor (Homo sapiens, UniProt P37288).
T1 construct: expressed in transfected cells; host or cells: CHO K1 (ATCC), also stably transfected with a modified aequorin
Briefly: Cellular in vitro assay for determining vasopressin receptor activity (V1a, aequorin luminescence). Format: cell-based. The note with it: for IC50: CHO cell line transfected with the human V1a receptor, [Arg8]-vasopressin at EC50 concentration, read-out: IC50 hV1a; for ratio IC50 hV2/hV1a: selectivity ratio of IC50 hV2 to IC50 hV1a. On the procedure: (§1) B-1. Cellular In Vitro Assay for Determining Vasopressin Receptor Activity
(§2) The identification of agonists and antagonists of the V1a and V2 vasopressin receptors from humans, rats and dogs as well as the quantification of the activity of the compounds of the invention is carried out using recombinant cell lines. These cell lines originally derive from a hamster's ovary epithelial cell (Chinese Hamster Ovary, CHO K1, ATCC: American Type Culture Collection, Manassas, Va. 20108, USA). The test cell lines constitutively express the human, rat or dog V1a or V2 receptors. In case of the Gαq-coupled V1a receptors, cells are also stably transfected with a modified form of the calcium-sensitive photoproteins aequorin (human and rat V1a) or obelin (dog V1a), which, after reconstitution with the cofactor coelenterazine, emit light when there are increases in free calcium concentrations [Rizzuto R, Simpson A W, Brini M, Pozzan T, Nature 358, 325-327 (1992); Illarionov B A, Bondar V S, Illarionova V A, Vysotski E S, Gene 153 (2), 273-274 (1995)]. The resulting vasopressin receptor cells react to stimulation of the recombinantly expressed V1a receptors by intracellular release of calcium ions, which can be quantified by the resulting photoprotein luminescence. The Gs-coupled V2 receptors are stably transfected into cell lines expressing the gene for firefly luciferase under control of a CRE-responsible promoter. Activation of V2 receptors induces the activation of the CRE-responsive promoter via cAMP increase, thereby inducing the expression of firefly luciferase. The light emitted by photoproteins of V1a cell lines as well as the light emitted by firefly luciferase of V2 cell lines corresponds to the activation or inhibition of the respective vasopressin receptor. The bioluminescence of the cell lines is detected using a suitable luminometer [Milligan G, Marshall F, Rees S, Trends in Pharmacological Sciences 17, 235-237 (1996)].
Vasopressin V1a receptor cell lines:
On the day before the assay, the cells are plated out in culture medium (DMEM/F12, 2% FCS, 2 mM glutamine, 10 mM HEPES, 5 μg/ml coelenterazine) in 384-well microtiter plates and kept in a cell incubator (96% humidity, 5% v/v CO2, 37° C.). On the day of the assay, test compounds in various concentrations are placed for 10 minutes in the wells of the microtiter plate before the agonist [Arg^8]-vasopressin at EC50 concentration is added. The resulting light signal is measured immediately in a luminometer.
(§3) Table 1A below lists individual IC50 values for the compounds of the invention (including racemic mixtures as well as separated enantiomers) that were obtained from cell lines transfected with the human V1a or V2 receptor: […]

The target of test [2] is T2, human V2 receptor (Homo sapiens, UniProt P30518).
T2 construct: expressed in transfected cells; host or cells: CHO K1 (ATCC) expressing firefly luciferase under a CRE-responsive promoter
As to the kind of experiment: Cellular in vitro assay for determining vasopressin receptor activity (V2, CRE-luciferase). The note with it: CHO cell line transfected with the human V2 receptor; [Arg8]-vasopressin at EC50 concentration; read-out: IC50 hV2. Format: cell-based. How it is done:
as §1, §2
Vasopressin V2 receptor cell lines:
On the day before the assay, the cells are plated out in culture medium (DMEM/F12, 2% FCS, 2 mM glutamine, 10 mM HEPES) in 384-well microtiter plates and kept in a cell incubator (96% humidity, 5% v/v CO2, 37° C.). On the day of the assay, test compounds in various concentrations and the agonist [Arg^8]-vasopressin at EC50 concentration are added together to the wells, and plates are incubated for 3 hours in a cell incubator. Upon addition of the cell lysis reagent Triton™ and the substrate luciferin, luminescence of firefly luciferase is measured in a luminometer.
as §3

T2 sequence (P30518 whole entry): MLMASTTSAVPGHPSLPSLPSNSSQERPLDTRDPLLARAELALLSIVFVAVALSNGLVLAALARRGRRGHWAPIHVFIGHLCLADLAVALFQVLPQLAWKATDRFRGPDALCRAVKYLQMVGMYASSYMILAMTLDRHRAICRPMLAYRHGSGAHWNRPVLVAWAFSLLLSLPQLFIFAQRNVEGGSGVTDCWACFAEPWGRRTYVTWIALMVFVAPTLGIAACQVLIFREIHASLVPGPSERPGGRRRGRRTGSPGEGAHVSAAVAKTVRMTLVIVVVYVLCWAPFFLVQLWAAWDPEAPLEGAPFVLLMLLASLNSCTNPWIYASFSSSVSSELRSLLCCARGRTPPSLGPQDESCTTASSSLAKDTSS
T1 sequence (P37288 whole entry): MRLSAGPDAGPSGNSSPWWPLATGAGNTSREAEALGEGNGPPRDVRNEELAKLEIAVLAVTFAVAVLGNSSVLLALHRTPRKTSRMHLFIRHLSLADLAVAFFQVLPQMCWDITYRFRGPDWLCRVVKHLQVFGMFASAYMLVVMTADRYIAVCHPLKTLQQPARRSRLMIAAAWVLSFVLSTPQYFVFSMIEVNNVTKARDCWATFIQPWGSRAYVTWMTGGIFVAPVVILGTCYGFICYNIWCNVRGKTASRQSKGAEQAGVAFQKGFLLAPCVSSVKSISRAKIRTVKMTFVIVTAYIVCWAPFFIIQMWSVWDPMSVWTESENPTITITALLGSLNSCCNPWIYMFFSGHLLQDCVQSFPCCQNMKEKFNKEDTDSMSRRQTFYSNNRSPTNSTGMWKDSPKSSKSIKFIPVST

Broadly, the IC50 is the concentration at which inhibition is half-maximal. `C[C@H](OC(N)=O)c1nc(Cn2nc(-c3ccc(Cl)cc3)n(C[C@H](O)C(F)(F)F)c2=O)nn1-c1ccccc1OC(F)F` [Example 5, (1S)-1-{3-({3-(4-Chlorophenyl)-5-oxo-4-[(2S)-3,3,3-trifluoro-2-hydroxypropyl]-4,5-dihydro-1H-1,2,4-triazol-1-yl}methyl)-1-[2-(difluoromethoxy)phenyl]-1H-1,2,4-triazol-5-yl}ethyl Carbamate]: in test [1], the IC50 turned out to be 1.6 nM and the “ratio IC50 hV2/hV1a” value is reported as 4.4. For the same compound, the IC50 in test [2] turned out to be 7.05 nM.
In the case of `CN1C(=O)CCC1c1nc(Cn2nc(-c3ccc(Cl)cc3)n(C[C@H](O)C(F)(F)F)c2=O)nn1CCC(F)(F)F` (single isomer, unassigned) [Example 132], the IC50 amounted to 18.5 nM in test [1] and 1730 nM in test [2]. Also, in test [1], the “ratio IC50 hV2/hV1a” value turned out to be 93.5.
Taken in the same sequence, the figures for `CCNC(=O)OCc1nc(Cn2nc(-c3ccc(Cl)cc3)n(C[C@H](O)C(F)(F)F)c2=O)nn1-c1cccc(F)c1` [Example 43, [3-({3-(4-Chlorophenyl)-5-oxo-4-[(2S)-3,3,3-trifluoro-2-hydroxypropyl]-4,5-dihydro-1H-1,2,4-triazol-1-yl}methyl)-1-(3-fluorophenyl)-1H-1,2,4-triazol-5-yl]methyl Ethylcarbamate] were 5.59 nM, 5.93 nM and 1.1.
On the same counts, the results for `COc1ccccc1-n1nc(Cn2nc(-c3ccc(Cl)cc3)n(C[C@H](O)C(F)(F)F)c2=O)nc1COC(N)=O` [Example 27, [3-({3-(4-Chlorophenyl)-5-oxo-4-[(2S)-3,3,3-trifluoro-2-hydroxypropyl]-4,5-dihydro-1H-1,2,4-triazol-1-yl}methyl)-1-(2-methoxyphenyl)-1H-1,2,4-triazol-5-yl]methyl Carbamate] are 1.78 nM, 3.11 nM and 1.8.
On the same counts, the results for `C[C@H](OC(N)=O)c1nc(Cn2nc(-c3ccc(Cl)cc3)n(C[C@H](O)C(F)(F)F)c2=O)nn1-c1ncccc1OC(F)(F)F` [Example 22, (1S)-1-{3-({3-(4-Chlorophenyl)-5-oxo-4-[(2S)-3,3,3-trifluoro-2-hydroxypropyl]-4,5-dihydro-1H-1,2,4-triazol-1-yl}methyl)-1-[3-(trifluoromethoxy)pyridin-2-yl]-1H-1,2,4-triazol-5-yl}ethyl Carbamate] are 9.95 nM, 144 nM and 14.4.
As to `O=C1NC(c2nc(Cn3nc(-c4ccc(Cl)cc4)n(C[C@H](O)C(F)(F)F)c3=O)nn2-c2ncccc2Cl)CO1` (mixture of isomers) [Example 112, 5-(4-Chlorophenyl)-2-({1-(3-chloropyridin-2-yl)-5-[2-oxo-1,3-oxazolidin-4-yl]-1H-1,2,4-triazol-3-yl}methyl)-4-[(2S)-3,3,3-trifluoro-2-hydroxypropyl]-2,4-dihydro-3H-1,2,4-triazol-3-one], in test [1], the IC50 came to 8.4 nM and the “ratio IC50 hV2/hV1a” value was found to be 25.0. Moreover, the IC50 in test [2] came out at 210 nM.
Taken in the same sequence, the figures for `CC(=O)NC(CO)c1nc(Cn2nc(-c3ccc(Cl)cc3)n(C[C@H](O)C(F)(F)F)c2=O)nn1-c1ncccc1OC(F)(F)F` (mixture of isomers) [Example 120, N-[1-{3-({3-(4-Chlorophenyl)-5-oxo-4-[(2S)-3,3,3-trifluoro-2-hydroxypropyl]-4,5-dihydro-1H-1,2,4-triazol-1-yl}methyl)-1-[3-(trifluoromethoxy)pyridin-2-yl]-1H-1,2,4-triazol-5-yl}-2-hydroxyethyl]acetamide] were 12.5 nM, 32.8 and 410 nM.
Take `CN1C(=O)CC[C@@H]1c1nc(Cn2nc(-c3ccc(Cl)cc3)n(C[C@H](O)C(F)(F)F)c2=O)nn1-c1ncccc1Cl` (single isomer, unassigned) [Example 104]: in test [1], the IC50 was 3.1 nM and the “ratio IC50 hV2/hV1a” value worked out at 56.4. In addition, the IC50 in test [2] was found to be 175 nM.
On the same counts, the results for `CC(NS(C)(=O)=O)c1nc(Cn2nc(-c3ccc(Cl)cc3)n(C[C@H](O)C(F)(F)F)c2=O)nn1-c1ccccc1Cl` (mixture of isomers) [Example 67, N-{1-[1-(2-Chlorophenyl)-3-({3-(4-chlorophenyl)-5-oxo-4-[(2S)-3,3,3-trifluoro-2-hydroxypropyl]-4,5-dihydro-1H-1,2,4-triazol-1-yl}methyl)-1H-1,2,4-triazol-5-yl]ethyl}methanesulfonamide] are 0.83 nM, 2.9 and 2.43 nM.
Taken in the same sequence, the figures for `CC(N)c1nc(Cn2nc(-c3ccc(Cl)cc3)n(C[C@H](O)C(F)(F)F)c2=O)nn1-c1cccc(F)c1` (mixture of isomers) [Example 53, 2-({5-[1-Aminoethyl]-1-(3-fluorophenyl)-1H-1,2,4-triazol-3-yl}methyl)-5-(4-chlorophenyl)-4-[(2S)-3,3,3-trifluoro-2-hydroxypropyl]-2,4-dihydro-3H-1,2,4-triazol-3-one trifluoroacetate] were 18.3 nM, 0.3 and 5.29 nM.
Taken in the same sequence, the figures for `C[C@@H](OC(N)=O)c1nc(Cn2nc(-c3ccc(Cl)cc3)n(C[C@H](O)C(F)(F)F)c2=O)nn1-c1ncccc1Cl` [Example 15, (1R)-1-[3-({3-(4-Chlorophenyl)-5-oxo-4-[(2S)-3,3,3-trifluoro-2-hydroxypropyl]-4,5-dihydro-1H-1,2,4-triazol-1-yl}methyl)-1-(3-chloropyridin-2-yl)-1H-1,2,4-triazol-5-yl]ethyl Carbamate] were 1.02 nM, 34.8 and 35.5 nM.
As to `CN1C(=O)CCC1c1nc(Cn2nc(-c3ccc(Cl)cc3)n(C[C@H](O)C(F)(F)F)c2=O)nn1-c1ccccc1Cl` (single isomer, unassigned) [Example 71], in test [1], the IC50 turned out to be 0.7 nM and the “ratio IC50 hV2/hV1a” value was found to be 19.7. The IC50 in test [2] is 13.8 nM.
Taken in the same sequence, the figures for `C[C@H](OC(N)=O)c1nc(Cn2nc(-c3ccc(Cl)cc3)n(C[C@H](O)C(F)(F)F)c2=O)nn1-c1c(Cl)cncc1Cl` [Example 19, (1S)-1-[3-({3-(4-Chlorophenyl)-5-oxo-4-[(2S)-3,3,3-trifluoro-2-hydroxypropyl]-4,5-dihydro-1H-1,2,4-triazol-1-yl}methyl)-1-(3,5-dichloropyridin-4-yl)-1H-1,2,4-triazol-5-yl]ethyl Carbamate] were 1.55 nM, 40.7 and 63 nM.
As to `CC(C)(C)OCC(NC(=O)C(F)(F)F)c1nc(Cn2nc(-c3ccc(Cl)cc3)n(C[C@H](O)C(F)(F)F)c2=O)nn1-c1ccccc1Cl` (mixture of isomers) [Example 94, N-{2-tert-Butoxy-1-[1-(2-chlorophenyl)-3-({3-(4-chlorophenyl)-5-oxo-4-[(2S)-3,3,3-trifluoro-2-hydroxypropyl]-4,5-dihydro-1H-1,2,4-triazol-1-yl}methyl)-1H-1,2,4-triazol-5-yl]ethyl}-2,2,2-trifluoroacetamide], in test [1], the IC50 amounted to 1.1 nM and the “ratio IC50 hV2/hV1a” value was determined as 25.0. Besides, in test [2], the IC50 is 27.5 nM.
On the same counts, the results for `O=C(NC(CO)c1nc(Cn2nc(-c3ccc(Cl)cc3)n(C[C@H](O)C(F)(F)F)c2=O)nn1-c1ccccc1Cl)C(F)(F)F` (single isomer, unassigned) [Example 97] are 4.45 nM, 4.5 and 20 nM.
Taken in the same sequence, the figures for `COc1ccccc1-n1nc(Cn2nc(-c3ccc(Cl)cc3)n(C[C@H](O)C(F)(F)F)c2=O)nc1C(C)OC(N)=O` (single isomer, unassigned) [Example 39] were 1.1 nM, 1.6 and 1.76 nM.
